Laboratory results as given in ChEMBL document CHEMBL1201862, “PubChem BioAssay data set” (2004).
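Values below derive from 48-hour exposures of cells grown in 96-well plates, with endpoints linearly interpolated between the two concentrations bracketing the appropriate inhibition level. The concentration for 50% growth inhibition is given as GI50.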 Calls of active or inactive are those of the source. No stated cut-off is given here; in the data, active = GI50 up to about 1.1 µM and inactive = higher.

Experiments:
Assay in all cases: growth of human tumour cells (NCI), 48 h
786-0 = test system: 786-0
A498 = test system: A498
A549 = test system: A549
ACHN = test system: ACHN
BT-549 = test system: BT-549
CAKI-1 = test system: CAKI-1
CCRF-CEM = test system: CCRF-CEM
COLO 205 = test system: COLO 205
DU-145 = test system: DU-145
EKVX = test system: EKVX
HCC 2998 = test system: HCC 2998
HCT-116 = test system: HCT-116
HCT-15 = test system: HCT-15
HL-60 = test system: HL-60
HOP-62 = test system: HOP-62
HT-29 = test system: HT-29
Hs-578T = test system: Hs-578T
IGROV-1 = test system: IGROV-1
K562 = test system: K562
KM12 = test system: KM12
LOX IMVI = test system: LOX IMVI
M14 = test system: M14
MCF7 = test system: MCF7
MDA-MB-231 = test system: MDA-MB-231
MDA-MB-435 = test system: MDA-MB-435
MDA-N = test system: MDA-N
MOLT-4 = test system: MOLT-4
Malme-3M = test system: Malme-3M
NCI-H226 = test system: NCI-H226
NCI-H23 = test system: NCI-H23
NCI-H460 = test system: NCI-H460
NCI-H522 = test system: NCI-H522
NCI/ADR-RES = test system: NCI/ADR-RES
OVCAR-3 = test system: OVCAR-3
OVCAR-4 = test system: OVCAR-4
OVCAR-5 = test system: OVCAR-5
OVCAR-8 = test system: OVCAR-8
PC-3 = test system: PC-3
RPMI-8226 = test system: RPMI-8226
SF-268 = test system: SF-268
SF-295 = test system: SF-295
SF-539 = test system: SF-539
SK-MEL-28 = test system: SK-MEL-28
SK-MEL-2 = test system: SK-MEL-2
SK-MEL-5 = test system: SK-MEL-5
SK-OV-3 = test system: SK-OV-3
SN12C = test system: SN12C
SNB-19 = test system: SNB-19
SR = test system: SR
SW-620 = test system: SW-620
T47D = test system: T47D
TK-10 = test system: TK-10
U-251 = test system: U-251
UACC-257 = test system: UACC-257
UACC-62 = test system: UACC-62
UO-31 = test system: UO-31

Measured: GI50

O=C1CSC(c2ccc([N+](=O)[O-])cc2)N1c1ccc(-n2c(-c3ccccc3)nc3ccccc3c2=O)cc1 (stereo unspecified)
41.3 µM: HCT-15
inactive: 786-0 > 100 µM | A498 > 100 µM | A549 > 100 µM | ACHN 77.8 µM | BT-549 16.7 µM | CAKI-1 64.6 µM | CCRF-CEM > 100 µM | COLO 205 > 100 µM | DU-145 > 100 µM | EKVX > 100 µM | HCC 2998 41 µM | HCT-116 61.9 µM | HL-60 > 100 µM | HOP-62 > 100 µM | HT-29 > 100 µM | Hs-578T > 100 µM | IGROV-1 > 100 µM | K562 86.9 µM | KM12 31.7 µM | LOX IMVI > 100 µM | M14 > 100 µM | MCF7 73.5 µM | MDA-MB-231 70.3 µM | MDA-MB-435 > 100 µM | MDA-N > 100 µM | MOLT-4 29.5 µM | Malme-3M > 100 µM | NCI-H226 2.96 µM | NCI-H23 > 100 µM | NCI-H460 > 100 µM | NCI-H522 40.8 µM | NCI/ADR-RES 60.7 µM | OVCAR-3 > 100 µM | OVCAR-4 21.3 µM | OVCAR-5 > 10 µM | OVCAR-8 > 100 µM | PC-3 > 100 µM | RPMI-8226 > 100 µM | SF-268 38.5 µM | SF-295 > 100 µM | SF-539 42.9 µM | SK-MEL-28 > 100 µM | SK-MEL-2 > 100 µM | SK-MEL-5 82.2 µM | SK-OV-3 > 100 µM | SN12C > 100 µM | SNB-19 > 100 µM | SR 14.6 µM | SW-620 > 100 µM | T47D 22.5 µM | TK-10 > 100 µM | U-251 > 100 µM | UACC-257 > 100 µM | UACC-62 7.98 µM | UO-31 2.56 µM
